Measurements as given in patent US20100069316A1, “TREATMENT FOR MULTIPLE MYELOMA” (Ares Trading S.A., priority 2006, published 2010).
Where two headings read alike, the source gives them in different places.

Columns and labels:
XG12 myeloma cell line = experiment: Cell proliferation assay (tritiated thymidine incorporation), XG12; type: cell-based, human; details: Homo sapiens, XG12, alone or with fixed Velcade/Melphalan
Description: (§1) Myeloma cells were harvested in the exponential growth phase (at day 3 after culture passage when the cell concentration is around 5×10^5 cells/ml). Cells were washed twice, cultured for 3 hours in RPMI1640 and 10% FCS, washed twice. This makes it possible to remove cell-bound growth factors (in particular recombinant IL-6). Then cells are plated in 96-well flat-bottomed microplates at various concentrations depending on their doubling time: • 5×10^3 cells/well in 100 μl for the cell lines: XG-1, XG-7 • 10^4 cells/well in […] for the cell lines: XG-2, XG-4, XG-6, XG-11, PRMI8226, L363 • 2×10^4 cells/well in 100 μl for the cell lines: XG-3, XG-12, XG-13, XG-14, XG-19, XG-20
(§2) The culture medium used were: • PRMI1640, 10% FCS and 0.5 ng/ml of IL-6 for XG-1, XG-2, XG-3, XG-4, XG-6, XG-7, XG-11, XG-12, XG-13, XG-19, XG-20 cells • X-VIVO20 and 0.5 ng/ml IL-6 for XG-14 cells • PRMI1640 and 10% FCS for RPMI8226 and L363 cells
(§3) The diluted compounds, DMSO or control culture medium were added in 100 μl at the start of the culture. Three culture wells were done for one compound dilution and the experiments were done twice (finally six culture wells for one compound dilution).
(§4) Cells were cultured for 4 days. Eight hours before the end of the culture, 0.5 μCi of tritiated thymidine were added in 50 μl of RPMI1640 and 10% FCS. Cells were then extracted with a cell collector and the thymidine incorporation was determined using a beta cell counter.
(§5) For each experiment, the mean tritiated thymidine incorporations (mean values determined on three culture wells) were plotted against the logarithmic concentrations of the compound. The curves were fitted with exponential regression, which was determined using the concentrations defining the inhibition response (usually 3-4 concentrations).
(§6) The concentrations yielding 50% and 90% inhibition of the proliferation of myeloma cells were determined with these regression curves.
(§7) The concentration yielding 10% (IC10) or 50% (IC50) inhibition of the myeloma cell lines were determined and the data are listed in Table 2.
(§8) Compound A was tested in combination with melphalan or Velcade. Increasing concentration of compound A (0, 0.01, 0.03, 0.12, 0.37, 1.1, 3.1, 10, 30 μM) were applied on 4 myeloma cell lines alone or in combination with Velcade or melphalan at concentration yielding around 10% or 50% inhibition.

10 myeloma cell lines = experiment: Cell proliferation assay, mean over 10 myeloma cell lines; type: cell-based, human; details: mean determined on 10 myeloma cell lines
Description: as §1, §2, §3, §4, §5, §6

14 myeloma cell lines = experiment: Cell proliferation assay (tritiated thymidine incorporation), panel of myeloma cell lines; type: cell-based; details: 14 human myeloma cell lines, 0.04-10 μM, 4 days culture
Description: Myeloma cell lines were passaged every 3-4 days in RPMI640 and 10% fetal calf serum (FCS). For the IL-6 dependent cell lines, 2 ng/ml of freshly thawed IL-6 (Abcys, France) was added at the beginning of the culture. Each cell line has unique phenotypic and HLA characteristics that make it possible to periodically check their identity.
The following cell lines were obtained in B. Klein's laboratory: XG-1, XG-2, XG-3, XG-4, XG-6, XG-7, XG-11, XG-12, XG-13, XG-14, XG-19, XG-20. (Zhang, et al., 1994; Rebouissou, et al., 1998)
RPMI8226 and L363 cell lines were purchased from ATCC.
Myeloma cells were harvested in the exponential growth phase (at day 3 after culture passage when the cell concentration is around 5×10^5 cells/ml). Cells were washed twice, cultured for 3 hours in RPMI1640 and 10% FCS, washed twice. This makes it possible to remove cell-bound growth factors (in particular recombinant IL-6). […]
Cells were cultured for 4 days. […] Cells were then extracted with a cell collector and the thymidine incorporation was determined using a beta cell counter.
as §5, with “concentrations). […]” for “concentrations).”

XG-12 myeloma cell line = experiment: Cell cycle measurement (BrdU/PI, S phase), XG-12; type: cell-based, human; details: day 3 of culture
Description: The cell cycle distribution of the cell lines was assessed by flow cytometry analysis by propidium iodide (PI) and bromodeoxyuridine (BrdU) double-staining. Thirty minutes before stopping the culture, BrdU (10 μM) were added to the cultures and then the cells were collected by centrifugation, washed twice in phosphate buffer saline (PBS) and fixed in 70% ethanol for 20 minutes at room temperature. After two washes with PBS, cells were resuspended in 50 μL of 3N HCl, 0.5% Tween 20 and incubated 20 minutes at 20° C. to denature DNA. […] The fluorescence of FL1-H (BrdU) and FL2-A (PI) were analyzed on a FACScan flow cytometer using Cell Quest software (Becton Dickinson).
Two myeloma cell lines (XG-3 and XG-12) that are sensitive to compound A (1-(4-{4-[4-(4-chlorophenyl)-pyrimidin-2-ylamino]-benzoyl}-piperazin-1-yl)-ethanone) were selected for the study. To assess the effect of compound A on myeloma cell survival, the percentage apoptotic cells was determined using binding of annexin V to apoptotic cells. The effect of compound A on the cell cycle was assessed by evaluating the percentage of cells in the S phase of the cell cycle by incorporation of BrdU-FITC. Apoptosis, cell cycle and cell numeration were evaluated daily on a four day culture period on the cell lines using the IC10, IC50 and I90 respective doses of compound A.

L363 myeloma cell line = experiment: Cell proliferation assay (tritiated thymidine incorporation), L363; type: cell-based, human; details: alone or with fixed Velcade/Melphalan; for IC50: concentration of compound A yielding 50% inhibition of proliferation, read-out: IC50; for IC90: concentration of compound A yielding 90% inhibition of proliferation
Description: as §1, §2, §3, §4, §5, §6, §7, §8

Structure (SMILES): CC(=O)N1CCN(C(=O)c2ccc(Nc3nccc(-c4ccc(Cl)cc4)n3)cc2)CC1 [Compound A, 1-(4-{4-[4-(4-Chloro-phenyl)-pyrimidin-2-ylamino]-benzoyl}-piperazin-1-yl)-ethanone]
- IC50 (XG12 myeloma cell line; concentration of compound A yielding 50% inhibition of proliferation, read-out: IC50): 0.974 µM
- IC90 (XG12 myeloma cell line; concentration of compound A yielding 90% inhibition of proliferation): 3.92 µM
- IC50 (10 myeloma cell lines; Homo sapiens, read-out: mean concentration yielding 50% inhibition): 3.3 µM
- mean concentration yielding 10% inhibition (10 myeloma cell lines): 1 µM
- mean concentration yielding 90% inhibition (10 myeloma cell lines): 10 µM
- inhibition of the proliferation of myeloma cell lines (14 myeloma cell lines): full inhibition of the proliferation of 13 out 14 human myeloma cells
- S phase (%) percentage of cells in the S phase (XG-12 myeloma cell line; XG-12, compound A at IC50 concentration): 37.3%
- S phase (%) percentage of cells in the S phase (XG-12 myeloma cell line; XG-12, compound A at IC90 concentration): 6.8%
- IC50 (L363 myeloma cell line; Homo sapiens, L-363, L363): 2.33 µM
- IC90 (L363 myeloma cell line; Homo sapiens, L-363, L363): 10.1 µM
- IC50 (L363 myeloma cell line; L363): 1.79 µM
- IC90 (L363 myeloma cell line; L363): 9.41 µM
